Patent US20110082133A1, “PYRIDONE COMPOUNDS” (priority 2008, published 2011)

What follows are compounds tested against rat EP4 receptor (Rattus norvegicus, UniProt P43114) (assay: Evaluation test on EP4 receptor affinity in rat ([3H]PGE2 receptor binding test, membrane fraction)). Conditions: [3H]PGE2 0.3 nM, membrane fraction of rat EP4 expressing HEK293 cells.
Parameters: expressed in transfected cells; host or cells: HEK293 cells, transient transfection (Lipofectamine 2000); membrane fraction used
Procedure: A rat EP4 receptor cDNA was subcloned into an expression vector (pcDNA3.1-V5-His-topo, manufactured by Invitrogen Corporation) to prepare a rat EP4 expression vector. HEK293 cells were cultured in a collagen type I-treated 15 cm dish (manufactured by Asahi Techno Glass Co. Ltd.) to a confluence of 70%. An Opti-MEM culture medium at 1.2 mL/dish and a transfection reagent (Lipofectamine 2000, manufactured by Invitrogen Corporation) at 60 μL/dish were mixed, followed by being left to stand at room temperature for 5 minutes. Then, the rat EP4 receptor expression vector at 15 μg/dish was added thereto, followed by being left to stand at room temperature for 30 minutes. The liquid mixture of the transfection reagent was added into the dish, followed by culturing for 20 to 24 hours. The cell culture was carried out in a CO2 incubator (37° C., 5% CO2).
The culture medium was removed by suction, 10 mL of cooled PBS was added thereto per 15 cm dish, and the cells were scraped using a cell scraper. After washed with cooled PBS (1,200 rpm, 4° C., 5 minutes), suspended in 6 mL/dish of cooled 20 mM Tris-HCl (pH 7.4; manufactured by Nacalai Tesque Inc., 5 mM EDTA included) and homogenized using a Polytron, the homogenate was centrifuged (26,000 rpm, 20 minutes, 4° C.). The obtained precipitate was resuspended in cooled 20 mM Tris-HCl and homogenized again using a Polytron, and the homogenate was centrifuged (26,000 rpm, 20 minutes, 4° C.). The obtained precipitate was resuspended in 50 mM HEPES (pH 7.5; manufactured by Dojindo Laboratories) at 1 mL per dish, homogenized using a Polytron, and freeze-stored at −80° C. as a membrane fraction. At this time, a part thereof was used for the measurement of the protein concentration. Measurement of the protein concentration was carried out using a Protein assay stain (manufactured by Bio-Rad Laboratories) in accordance with a standard Protocol as appended in duplicate.
[^3H]PGE2 50 μL (final concentration 0.3 nM; manufactured by Perkin Elmer Co., Ltd.), 100 μL (20 μg/well) of the membrane fraction prepared from the rat EP4 expression cell, and 50 μL of a test compound were mixed in a 96-well microplate (manufactured by Sumitomo Bakelite Co., Ltd.), incubated at room temperature for 1 hour, then filtered by suction on a microplate (UniFilter-96 GF/B, manufactured by Perkin Elmer Co., Ltd.) using a cell harvester (FilterMate Harvester, manufactured by Perkin Elmer Co., Ltd.), and washed three times with 300 μL/well of a cooled assay buffer (50 mM HEPES, 10 mM MgCl2). Dilution of [^3H]PGE2 and the membrane fraction was carried out using the assay buffer, and dilution of the test compound and the unlabeled PGE2 was carried out using dimethyl sulfoxide and the assay buffer. The UniFilter-96 GF/B was treated by preliminarily washing twice with 200 μL/well of the cooled assay buffer. The UniFilter-96 GF/B after filtration was dried in a dryer overnight, 50 μL/well of a liquid scintillation cocktail (MicroScint20, manufactured by Perkin Elmer Co., Ltd.) was added thereto, and the radioactivity was then measured using a liquid scintillation counter for a microplate (TopCount, manufactured by Perkin Elmer Co., Ltd.). For measurement of the non-specific binding, an unlabeled PGE2 (final concentration 1 μM; manufactured by Cayman Chemical Company) was added. All of the measurements were carried out in duplicate, and the specific binding amount was determined by subtracting the non-specific binding amount from the total binding amount.
According to the test method as described above, the rat EP4 receptor affinity (Ki) of the compound of the formula (I) was measured. […] In this connection, Ex means Example Compound number.

Sequence of rat EP4 receptor (P43114 whole entry): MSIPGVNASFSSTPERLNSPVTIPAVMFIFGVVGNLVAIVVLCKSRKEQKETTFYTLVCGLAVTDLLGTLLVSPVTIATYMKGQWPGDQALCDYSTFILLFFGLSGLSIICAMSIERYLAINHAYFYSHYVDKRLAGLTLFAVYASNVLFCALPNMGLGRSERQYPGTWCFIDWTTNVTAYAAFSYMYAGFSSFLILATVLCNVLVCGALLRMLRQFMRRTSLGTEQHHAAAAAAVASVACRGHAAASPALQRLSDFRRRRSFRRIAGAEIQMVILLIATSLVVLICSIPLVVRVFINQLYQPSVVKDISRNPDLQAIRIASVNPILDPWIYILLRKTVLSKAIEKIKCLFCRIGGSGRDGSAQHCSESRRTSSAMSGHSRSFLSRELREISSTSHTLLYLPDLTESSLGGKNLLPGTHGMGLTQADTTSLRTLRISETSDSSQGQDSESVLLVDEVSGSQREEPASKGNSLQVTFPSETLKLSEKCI

Compound | Ki
CN(Cc1c(Cl)cc(Cl)c(=O)n1CCc1ccc(C(=O)O)cc1)c1cccc(OC(F)(F)F)c1 [Ex 19] | 5.4 nM
Cc1cccc(N(C)Cc2c(Cl)cc(Cl)c(=O)n2CCc2ccc(C(=O)O)cc2)c1 [Example 6, 4-{2-[3,5-dichloro-6-{[methyl(3-methylphenyl)amino]methyl}-2-oxopyridin-1(2H)-yl]ethyl}benzoic acid] | 11 nM
CCc1ccc2c(c1)N(Cc1c(Cl)cc(Cl)c(=O)n1CCc1ccc(C(=O)O)cc1)CC2 [Example 15, 4-(2-{3,5-dichloro-6-[(6-ethyl-2,3-dihydro-1H-indol-1-yl)methyl]-2-oxopyridin-1(2H)-yl}ethyl)benzoic acid] | 3.6 nM
O=C(O)c1ccc(CCn2c(CN3CCc4ccccc43)c(Cl)cc(Cl)c2=O)cc1 [Example 16, 4-{2-[3,5-dichloro-6-(2,3-dihydro-1H-indol-1-ylmethyl)-2-oxopyridin-1(2H)-yl]ethyl}benzoic acid] | 13 nM
CC(C)c1cccc(NCc2c(Cl)cc(Cl)c(=O)n2CCc2ccc(C(=O)O)cc2)c1 [Example 91] | 9.8 nM
CCN(Cc1c(Cl)cc(Cl)c(=O)n1CCc1ccc(C(=O)O)cc1)c1cccc(C(C)C)c1 [Example 123] | 21 nM
COc1ccc2c(c1)N(Cc1c(Cl)cc(Cl)c(=O)n1CCc1ccc(C(=O)O)cc1)CC2 [Example 130] | 4.1 nM
Cc1ccc2c(c1)N(Cc1c(Cl)cc(Cl)c(=O)n1CCc1ccc(C(=O)O)cc1)CC2 [Example 138] | 7.7 nM
Cc1cccc2c1N(Cc1c(Cl)cc(Cl)c(=O)n1CCc1ccc(C(=O)O)cc1)CC2 [Example 139] | 12 nM
CC(C)c1ccc2c(c1)N(Cc1c(Cl)cc(Cl)c(=O)n1CCc1ccc(C(=O)O)cc1)CC2 [Example 143] | 11 nM
Cc1ccc2c(c1)CCCN2Cc1c(Cl)cc(Cl)c(=O)n1CCc1ccc(C(=O)O)cc1 [Example 145] | 19 nM
COc1cccc2c1N(Cc1c(Cl)cc(Cl)c(=O)n1CCc1ccc(C(=O)O)cc1)CC2 [Example 146] | 39 nM
O=C(O)c1ccc(CCn2c(CN3CCc4ccc(OC(F)(F)F)cc43)c(Cl)cc(Cl)c2=O)cc1 [Example 152] | 5.1 nM

Now from value to compound:

Ki | Compound
4.4 nM | CC(C)C[C@H]1CCCN1Cc1c(Cl)cc(Cl)c(=O)n1CCc1ccc(C(=O)O)cc1 [Ex 18]
4.7 nM | CC(C)c1cccc(N(C)Cc2c(Cl)cc(Cl)c(=O)n2CCc2ccc(C(=O)O)cc2)c1 [Example 5, 4-{2-[3,5-dichloro-6-{[(3-isopropylphenyl)(methyl)amino]methyl}-2-oxopyridin-1(2H)-yl]ethyl}benzoic acid]
11 nM | CCc1cccc(NCc2c(Cl)cc(Cl)c(=O)n2CCc2ccc(C(=O)O)cc2)c1 [Example 97]
25 nM | O=C(O)c1ccc(CCn2c(CNc3cccc(C(F)(F)F)c3)c(Cl)cc(Cl)c2=O)cc1 [Example 99]
16 nM | CN(Cc1c(Cl)cc(Cl)c(=O)n1CCc1ccc(C(=O)O)cc1)c1cccc(F)c1 [Example 122]
6.2 nM | COc1cccc(N(C)Cc2c(Cl)cc(Cl)c(=O)n2CCc2ccc(C(=O)O)cc2)c1 [Example 124]
29 nM | COc1cc(OC)cc(N(C)Cc2c(Cl)cc(Cl)c(=O)n2CCc2ccc(C(=O)O)cc2)c1 [Example 125]
15 nM | O=C(O)c1ccc(CCn2c(CN3CCc4ccc(Cl)cc43)c(Cl)cc(Cl)c2=O)cc1 [Example 150]
4.9 nM | O=C(O)c1ccc(CCn2c(CN3CCc4ccc(C(F)(F)F)cc43)c(Cl)cc(Cl)c2=O)cc1 [Example 153]
8.6 nM | CCCC[C@H]1CCCN1Cc1c(Cl)cc(Cl)c(=O)n1CCc1ccc(C(=O)O)cc1 [Example 158]
